Measured values reported in the NIST ThermoML archive (doi:10.1021/acs.jced.5b00051).
Numbers after ± are expanded uncertainties.

Test: molar heat capacity at constant pressure
Conditions: 101.33 kPa, Liquid, Large sample (1 g) DSC

| SMILES | molar heat capacity at constant pressure (275.15 K) [J/K/mol] | molar heat capacity at constant pressure (277.15 K) [J/K/mol] | molar heat capacity at constant pressure (279.15 K) [J/K/mol] | molar heat capacity at constant pressure (281.15 K) [J/K/mol] | molar heat capacity at constant pressure (283.15 K) [J/K/mol] | molar heat capacity at constant pressure (285.15 K) [J/K/mol] | molar heat capacity at constant pressure (287.15 K) [J/K/mol] | molar heat capacity at constant pressure (289.15 K) [J/K/mol] | molar heat capacity at constant pressure (291.15 K) [J/K/mol] | molar heat capacity at constant pressure (293.15 K) [J/K/mol] | molar heat capacity at constant pressure (295.15 K) [J/K/mol] | molar heat capacity at constant pressure (297.15 K) [J/K/mol] | molar heat capacity at constant pressure (298.15 K) [J/K/mol] | molar heat capacity at constant pressure (299.15 K) [J/K/mol] | molar heat capacity at constant pressure (301.15 K) [J/K/mol] | molar heat capacity at constant pressure (303.15 K) [J/K/mol] | molar heat capacity at constant pressure (305.15 K) [J/K/mol] | molar heat capacity at constant pressure (307.15 K) [J/K/mol] | molar heat capacity at constant pressure (309.15 K) [J/K/mol] | molar heat capacity at constant pressure (311.15 K) [J/K/mol] | also measured |
| --- | --- | --- | --- | --- | --- | --- | --- | --- | --- | --- | --- | --- | --- | --- | --- | --- | --- | --- | --- | --- | --- |
| CCCCCCCCOCCOCCOCCO [2-[2-[2-(octyloxy)ethoxy]ethoxy]ethanol] | 563.7 ± 8.7 | 564.5 ± 8.7 | 565.2 ± 8.8 | 566 ± 8.8 | 566.9 ± 8.8 | 567.7 ± 8.8 | 568.6 ± 8.8 | 569.5 ± 8.8 | 570.4 ± 8.8 | 571.3 ± 8.9 | 572.2 ± 8.9 | 573.2 ± 8.9 | 573.7 ± 8.9 | 574.2 ± 8.9 | 575.2 ± 8.9 | 576.2 ± 8.9 | 577.3 ± 8.9 | 578.4 ± 9 | 579.5 ± 9 | 580.6 ± 9 | molar heat capacity at constant pressure (313.15 K): 581.7 ± 9 J/K/mol; molar heat capacity at constant pressure (315.15 K): 582.9 ± 9 J/K/mol; molar heat capacity at constant pressure (317.15 K): 584.1 ± 9 J/K/mol; molar heat capacity at constant pressure (319.15 K): 585.3 ± 9.1 J/K/mol; molar heat capacity at constant pressure (321.15 K): 586.5 ± 9.1 J/K/mol; molar heat capacity at constant pressure (323.15 K): 587.7 ± 9.1 J/K/mol; molar heat capacity at constant pressure (325.15 K): 589 ± 9.1 J/K/mol; molar heat capacity at constant pressure (327.15 K): 590.3 ± 9.1 J/K/mol; molar heat capacity at constant pressure (329.15 K): 591.6 ± 9.2 J/K/mol; molar heat capacity at constant pressure (331.15 K): 592.9 ± 9.2 J/K/mol; molar heat capacity at constant pressure (333.15 K): 594.3 ± 9.2 J/K/mol; molar heat capacity at constant pressure (335.15 K): 595.6 ± 9.2 J/K/mol; molar heat capacity at constant pressure (337.15 K): 597 ± 9.2 J/K/mol; molar heat capacity at constant pressure (339.15 K): 598.4 ± 9.3 J/K/mol |
| CCCCOCCO [2-butoxyethan-1-ol] | 261.7 ± 4.1 | 262.6 ± 4.1 | 263.6 ± 4.1 | 264.6 ± 4.1 | 265.6 ± 4.1 | 266.6 ± 4.1 | 267.6 ± 4.1 | 268.5 ± 4.2 | 269.5 ± 4.2 | 270.5 ± 4.2 | 271.5 ± 4.2 | 272.5 ± 4.2 | 273 ± 4.2 | 273.5 ± 4.2 | 274.5 ± 4.3 | 275.5 ± 4.3 | 276.5 ± 4.3 | 277.5 ± 4.3 | 278.5 ± 4.3 | 279.5 ± 4.3 | molar heat capacity at constant pressure (313.15 K): 280.5 ± 4.3 J/K/mol; molar heat capacity at constant pressure (315.15 K): 281.5 ± 4.4 J/K/mol; molar heat capacity at constant pressure (317.15 K): 282.5 ± 4.4 J/K/mol; molar heat capacity at constant pressure (319.15 K): 283.5 ± 4.4 J/K/mol; molar heat capacity at constant pressure (321.15 K): 284.5 ± 4.4 J/K/mol; molar heat capacity at constant pressure (323.15 K): 285.5 ± 4.4 J/K/mol; molar heat capacity at constant pressure (325.15 K): 286.5 ± 4.4 J/K/mol; molar heat capacity at constant pressure (327.15 K): 287.5 ± 4.5 J/K/mol; molar heat capacity at constant pressure (329.15 K): 288.5 ± 4.5 J/K/mol; molar heat capacity at constant pressure (331.15 K): 289.6 ± 4.5 J/K/mol; molar heat capacity at constant pressure (333.15 K): 290.6 ± 4.5 J/K/mol; molar heat capacity at constant pressure (335.15 K): 291.6 ± 4.5 J/K/mol; molar heat capacity at constant pressure (337.15 K): 292.6 ± 4.5 J/K/mol; molar heat capacity at constant pressure (339.15 K): 293.6 ± 4.5 J/K/mol |
| CCOCCO [2-ethoxyethan-1-ol] | 203.3 ± 3.2 | 204 ± 3.2 | 204.6 ± 3.2 | 205.3 ± 3.2 | 205.9 ± 3.2 | 206.6 ± 3.2 | 207.3 ± 3.2 | 208 ± 3.2 | 208.6 ± 3.2 | 209.3 ± 3.2 | 210 ± 3.3 | 210.7 ± 3.3 | 211.1 ± 3.3 | 211.4 ± 3.3 | 212.1 ± 3.3 | 212.8 ± 3.3 | 213.6 ± 3.3 | 214.3 ± 3.3 | 215 ± 3.3 | 215.7 ± 3.3 | molar heat capacity at constant pressure (313.15 K): 216.5 ± 3.4 J/K/mol; molar heat capacity at constant pressure (315.15 K): 217.2 ± 3.4 J/K/mol; molar heat capacity at constant pressure (317.15 K): 218 ± 3.4 J/K/mol; molar heat capacity at constant pressure (319.15 K): 218.7 ± 3.4 J/K/mol; molar heat capacity at constant pressure (321.15 K): 219.5 ± 3.4 J/K/mol; molar heat capacity at constant pressure (323.15 K): 220.2 ± 3.4 J/K/mol; molar heat capacity at constant pressure (325.15 K): 221 ± 3.4 J/K/mol; molar heat capacity at constant pressure (327.15 K): 221.8 ± 3.4 J/K/mol; molar heat capacity at constant pressure (329.15 K): 222.6 ± 3.4 J/K/mol; molar heat capacity at constant pressure (331.15 K): 223.3 ± 3.5 J/K/mol; molar heat capacity at constant pressure (333.15 K): 224.1 ± 3.5 J/K/mol; molar heat capacity at constant pressure (335.15 K): 224.9 ± 3.5 J/K/mol; molar heat capacity at constant pressure (337.15 K): 225.7 ± 3.5 J/K/mol; molar heat capacity at constant pressure (339.15 K): 226.5 ± 3.5 J/K/mol |
| CCCOCCO [2-propoxyethanol] | 231.6 ± 3.6 | 232.4 ± 3.6 | 233.3 ± 3.6 | 234.1 ± 3.6 | 235 ± 3.6 | 235.8 ± 3.7 | 236.6 ± 3.7 | 237.5 ± 3.7 | 238.3 ± 3.7 | 239.2 ± 3.7 | 240.1 ± 3.7 | 240.9 ± 3.7 | 241.4 ± 3.7 | 241.8 ± 3.7 | 242.7 ± 3.8 | 243.5 ± 3.8 | 244.4 ± 3.8 | 245.3 ± 3.8 | 246.2 ± 3.8 | 247.1 ± 3.8 | molar heat capacity at constant pressure (313.15 K): 248 ± 3.8 J/K/mol; molar heat capacity at constant pressure (315.15 K): 248.9 ± 3.9 J/K/mol; molar heat capacity at constant pressure (317.15 K): 249.8 ± 3.9 J/K/mol; molar heat capacity at constant pressure (319.15 K): 250.7 ± 3.9 J/K/mol; molar heat capacity at constant pressure (321.15 K): 251.6 ± 3.9 J/K/mol; molar heat capacity at constant pressure (323.15 K): 252.5 ± 3.9 J/K/mol; molar heat capacity at constant pressure (325.15 K): 253.4 ± 3.9 J/K/mol; molar heat capacity at constant pressure (327.15 K): 254.3 ± 3.9 J/K/mol; molar heat capacity at constant pressure (329.15 K): 255.2 ± 4 J/K/mol; molar heat capacity at constant pressure (331.15 K): 256.1 ± 4 J/K/mol; molar heat capacity at constant pressure (333.15 K): 257.1 ± 4 J/K/mol; molar heat capacity at constant pressure (335.15 K): 258 ± 4 J/K/mol; molar heat capacity at constant pressure (337.15 K): 258.9 ± 4 J/K/mol; molar heat capacity at constant pressure (339.15 K): 259.9 ± 4 J/K/mol |
| COCCOCCOCCOCCO [3,6,9,12-tetraoxatridecanol] | 445.4 ± 6.9 | 445.6 ± 6.9 | 445.8 ± 6.9 | 446 ± 6.9 | 446.2 ± 6.9 | 446.5 ± 6.9 | 446.8 ± 6.9 | 447.1 ± 6.9 | 447.4 ± 6.9 | 447.7 ± 6.9 | 448.1 ± 6.9 | 448.4 ± 6.9 | 448.6 ± 6.9 | 448.8 ± 7 | 449.2 ± 7 | 449.6 ± 7 | 450 ± 7 | 450.5 ± 7 | 451 ± 7 | 451.5 ± 7 | molar heat capacity at constant pressure (313.15 K): 452 ± 7 J/K/mol; molar heat capacity at constant pressure (315.15 K): 452.5 ± 7 J/K/mol; molar heat capacity at constant pressure (317.15 K): 453 ± 7 J/K/mol; molar heat capacity at constant pressure (319.15 K): 453.6 ± 7 J/K/mol; molar heat capacity at constant pressure (321.15 K): 454.2 ± 7 J/K/mol; molar heat capacity at constant pressure (323.15 K): 454.8 ± 7 J/K/mol; molar heat capacity at constant pressure (325.15 K): 455.4 ± 7.1 J/K/mol; molar heat capacity at constant pressure (327.15 K): 456 ± 7.1 J/K/mol; molar heat capacity at constant pressure (329.15 K): 456.6 ± 7.1 J/K/mol; molar heat capacity at constant pressure (331.15 K): 457.3 ± 7.1 J/K/mol; molar heat capacity at constant pressure (333.15 K): 458 ± 7.1 J/K/mol; molar heat capacity at constant pressure (335.15 K): 458.7 ± 7.1 J/K/mol; molar heat capacity at constant pressure (337.15 K): 459.4 ± 7.1 J/K/mol; molar heat capacity at constant pressure (339.15 K): 460.1 ± 7.1 J/K/mol |
| CCCCOCCOCCO [3,6-dioxa-1-decanol] | 351.2 ± 5.4 | 351.9 ± 5.5 | 352.7 ± 5.5 | 353.4 ± 5.5 | 354.2 ± 5.5 | 354.9 ± 5.5 | 355.7 ± 5.5 | 356.5 ± 5.5 | 357.3 ± 5.5 | 358.1 ± 5.5 | 359 ± 5.6 | 359.8 ± 5.6 | 360.2 ± 5.6 | 360.6 ± 5.6 | 361.5 ± 5.6 | 362.4 ± 5.6 | 363.3 ± 5.6 | 364.2 ± 5.6 | 365.1 ± 5.7 | 366 ± 5.7 | molar heat capacity at constant pressure (313.15 K): 366.9 ± 5.7 J/K/mol; molar heat capacity at constant pressure (315.15 K): 367.9 ± 5.7 J/K/mol; molar heat capacity at constant pressure (317.15 K): 368.8 ± 5.7 J/K/mol; molar heat capacity at constant pressure (319.15 K): 369.8 ± 5.7 J/K/mol; molar heat capacity at constant pressure (321.15 K): 370.8 ± 5.7 J/K/mol; molar heat capacity at constant pressure (323.15 K): 371.8 ± 5.8 J/K/mol; molar heat capacity at constant pressure (325.15 K): 372.8 ± 5.8 J/K/mol; molar heat capacity at constant pressure (327.15 K): 373.8 ± 5.8 J/K/mol; molar heat capacity at constant pressure (329.15 K): 374.8 ± 5.8 J/K/mol; molar heat capacity at constant pressure (331.15 K): 375.8 ± 5.8 J/K/mol; molar heat capacity at constant pressure (333.15 K): 376.9 ± 5.8 J/K/mol; molar heat capacity at constant pressure (335.15 K): 377.9 ± 5.9 J/K/mol; molar heat capacity at constant pressure (337.15 K): 379 ± 5.9 J/K/mol; molar heat capacity at constant pressure (339.15 K): 380.1 ± 5.9 J/K/mol |
| CCOCCOCCO [3,6-dioxa-1-octanol] | 296.5 ± 4.6 | 296.8 ± 4.6 | 297.2 ± 4.6 | 297.6 ± 4.6 | 298 ± 4.6 | 298.5 ± 4.6 | 298.9 ± 4.6 | 299.4 ± 4.6 | 299.9 ± 4.6 | 300.4 ± 4.7 | 300.9 ± 4.7 | 301.4 ± 4.7 | 301.7 ± 4.7 | 301.9 ± 4.7 | 302.5 ± 4.7 | 303.1 ± 4.7 | 303.7 ± 4.7 | 304.3 ± 4.7 | 304.9 ± 4.7 | 305.5 ± 4.7 | molar heat capacity at constant pressure (313.15 K): 306.2 ± 4.7 J/K/mol; molar heat capacity at constant pressure (315.15 K): 306.9 ± 4.8 J/K/mol; molar heat capacity at constant pressure (317.15 K): 307.5 ± 4.8 J/K/mol; molar heat capacity at constant pressure (319.15 K): 308.2 ± 4.8 J/K/mol; molar heat capacity at constant pressure (321.15 K): 309 ± 4.8 J/K/mol; molar heat capacity at constant pressure (323.15 K): 309.7 ± 4.8 J/K/mol; molar heat capacity at constant pressure (325.15 K): 310.4 ± 4.8 J/K/mol; molar heat capacity at constant pressure (327.15 K): 311.2 ± 4.8 J/K/mol; molar heat capacity at constant pressure (329.15 K): 312 ± 4.8 J/K/mol; molar heat capacity at constant pressure (331.15 K): 312.8 ± 4.8 J/K/mol; molar heat capacity at constant pressure (333.15 K): 313.6 ± 4.9 J/K/mol; molar heat capacity at constant pressure (335.15 K): 314.4 ± 4.9 J/K/mol; molar heat capacity at constant pressure (337.15 K): 315.2 ± 4.9 J/K/mol; molar heat capacity at constant pressure (339.15 K): 316.1 ± 4.9 J/K/mol |
